According to PubChem BioAssay (NCI):
Values joined by “and” are separate entries in the source; they are usually repeats but may differ in a detail not shown here. Identical values can stand only once.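 These data come from cells grown in 96-well plates and exposed to compound for 48 hours at five concentrations. The concentration for 50% growth inhibition is given as GI50. TGI denotes the concentration required for complete inhibition of growth.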

Columns and labels:
Experiment in all cases: NCI-60 cell line screen, 48 h
COLO 205 colon = tested on: COLO 205 colon
LOX IMVI melanoma = tested on: LOX IMVI melanoma
SK-MEL-5 melanoma = tested on: SK-MEL-5 melanoma
KM12 colon = tested on: KM12 colon
A498 renal = tested on: A498 renal
SK-MEL-28 melanoma = tested on: SK-MEL-28 melanoma
HCC-2998 colon = tested on: HCC-2998 colon
NCI/ADR-RES ovarian = tested on: NCI/ADR-RES ovarian
U251 CNS = tested on: U251 CNS
MCF7 breast = tested on: MCF7 breast

SMILES | GI50 (COLO 205 colon) | TGI (COLO 205 colon) | GI50 (LOX IMVI melanoma) | TGI (LOX IMVI melanoma) | GI50 (SK-MEL-5 melanoma) | TGI (SK-MEL-5 melanoma) | GI50 (KM12 colon) | TGI (KM12 colon) | GI50 (A498 renal) | TGI (A498 renal) | GI50 (SK-MEL-28 melanoma) | TGI (SK-MEL-28 melanoma) | GI50 (HCC-2998 colon) | TGI (HCC-2998 colon) | GI50 (NCI/ADR-RES ovarian) | TGI (NCI/ADR-RES ovarian) | GI50 (U251 CNS) | TGI (U251 CNS) | GI50 (MCF7 breast) | TGI (MCF7 breast)
O=C1Cc2cc(C(=O)NC3C[C@H]4CC[C@@H](C3)N4S(=O)(=O)CC3CCN(CCCC(F)(F)F)CC3)c(Cl)cc2N1 (stereo not given in full) | 31.2 µM | > 100 µM | > 100 µM | > 100 µM | > 100 µM | > 100 µM | > 100 µM | > 100 µM | > 100 µM | > 100 µM | > 100 µM | > 100 µM | > 100 µM | > 100 µM | > 100 µM | > 100 µM | > 100 µM | > 100 µM | > 100 µM | > 100 µM
CC[C@H](C)[C@H](NC(=O)[C@H]1CCCCN1C)C(=O)N(C)[C@H](C[C@@H](OC(C)=O)c1nc(C(=O)N[C@@H](Cc2ccccc2)C[C@H](C)C(=O)O)cs1)C(C)C | 0.000394 µM | 0.00275 µM | 0.000609 µM and 0.00165 µM | > 16.5 µM | 0.00013 µM and < 0.00165 µM | 0.0102 µM and < 0.00165 µM | 0.000269 µM and 0.00165 µM |  | 0.000548 µM and < 0.00165 µM | < 0.00165 µM | 8.63 µM | > 16.5 µM | 0.0013 µM and 0.00165 µM | > 16.5 µM | 0.00473 µM and 0.00165 µM |  | 0.000481 µM and 0.00165 µM | > 16.5 µM |  | > 16.5 µM
O=C1/C=C/[C@@H](O)[C@@H]2C[C@@H](O)C[C@H]2/C=C/CCC[C@H](C(F)(F)F)O1 | 0.0381 µM | 0.15 µM | 0.137 µM | 0.388 µM | 0.128 µM | 0.32 µM | 1.54 µM | 16.2 µM | 0.0705 µM | 0.715 µM | 0.096 µM | 0.65 µM | 1.14 µM | 9.2 µM | 0.408 µM | 11.4 µM | 1.7 µM | > 100 µM | 0.0896 µM | 0.813 µM
CCN1CCN(C(=O)[C@]23CCC(C)(C)C[C@@H]2C2=CC[C@@H]4[C@@]5(C)C/C(=C/c6ccncc6)C(=O)C(C)(C)[C@@H]5CC[C@@]4(C)[C@]2(C)CC3)CC1 | 1.64 µM | 3.64 µM | 1.4 µM | 2.8 µM | 1.6 µM | 2.99 µM | 1.47 µM | 2.98 µM | 1.7 µM | 3.1 µM | 1.62 µM | 3.03 µM | 1.47 µM | 2.89 µM | 1.48 µM | 3.17 µM | 1.42 µM | 2.87 µM | 1.08 µM | 2.53 µM
N=c1c2c(=N)n3c(nc2nc2n1-c1ccccc1Sc1ccccc1-2)sc1cc(Cl)ccc13 | 3.72 µM | 32.5 µM | 2.7 µM | 14.6 µM | 1.12 µM | 4 µM | 2.34 µM | 12.6 µM | 1.79 µM | 6.33 µM | 2.65 µM | 13.6 µM | 1.32 µM | 4.97 µM | 1.84 µM | 44.6 µM | 1.84 µM | 6.79 µM | 2.21 µM | > 100 µM
CO[C@H]1C[C@@H]2CC[C@@H](C)[C@@](O)(O2)C(=O)C(=O)N2CCCC[C@H]2C(=O)O[C@H]([C@H](C)C[C@@H]2CC[C@@H](OCCO)[C@H](OC)C2)CC(=O)[C@H](C)C=C(C)[C@@H](O)[C@@H](OC)C(=O)[C@H](C)C[C@H](C)/C=C/C=C/C=C1C | 12.3 µM | 30.1 µM | < 0.01 µM | 17.8 µM | 1.75 µM | 18.1 µM | 1.18 µM | 21.2 µM | < 0.01 µM | 16.3 µM | 11.3 µM | 24.5 µM | 4.48 µM | 22.1 µM | 3.26 µM | 31.7 µM | < 0.0108 µM | 18.1 µM | < 0.01 µM | 14 µM
CC(=O)[O][Hg][c]1c(C)c(C)cc(C)c1C | 2.49 µM | 6.47 µM | 1.21 µM | 3.06 µM | 1.8 µM | 4.66 µM | 2.22 µM | 6.26 µM | 2.09 µM | 4.38 µM | 1.5 µM | 3.02 µM | 1.37 µM | 2.72 µM | 2.96 µM | 9.14 µM | 0.765 µM | 2.26 µM | 0.873 µM | 2.86 µM
CC(=O)c1c(C)[nH]c(-c2nc3ccc(N4CCN(C)CC4)cc3[nH]2)c1-c1ccccc1 | 0.52 µM | 17.3 µM | 0.546 µM | 10.1 µM | 1.35 µM | 10.4 µM | 1.84 µM | 32.6 µM | 0.522 µM | 4.79 µM | 3.38 µM | 19.9 µM | 1.54 µM | 12.8 µM | 2.48 µM | > 100 µM | 3.53 µM | 72.6 µM | 0.266 µM | 13.5 µM
O=[N+]([O-])c1cccc(C2CC(c3ccccc3)=Nc3ccccc3S2)c1 (stereo not given) | 19.2 µM | 41.7 µM | 3.02 µM | 11.9 µM | 15.9 µM | 29.6 µM | 6.32 µM | 19.3 µM | 14.7 µM | 95.8 µM | 17.4 µM | 34.2 µM | 16 µM | 31 µM | 22.1 µM | > 100 µM | 8.48 µM | 21.2 µM | 2.06 µM | 13.3 µM
CCCCCCCCCCCCCC[C@@H](O)[C@H]1CC[C@H]([C@H]2CC[C@H]([C@H](O)CCCCCC[C@@H](O)CC3=C[C@H](C)OC3=O)O2)O1 | 1.52 µM | 3.06 µM and > 25 µM |  | 2.56 µM and > 25 µM | 0.717 µM | 2.52 µM and > 25 µM | 1.55 µM | 4.1 µM and > 25 µM | 3.27 µM | > 25 µM | 2.9 µM | > 25 µM |  | > 25 µM | 0.676 µM | 2.95 µM and > 25 µM | 2.06 µM | > 25 µM | 1.14 µM | 3.47 µM and > 25 µM
COc1cc2c3c(n(C)c(=O)c2cc1OC)-c1ccc(C#N)cc1C3=O | > 100 µM | > 100 µM | > 100 µM | > 100 µM | > 100 µM | > 100 µM | > 100 µM | > 100 µM | 64.7 µM | > 100 µM | > 100 µM | > 100 µM | > 100 µM | > 100 µM | > 100 µM | > 100 µM | 84.9 µM | > 100 µM | 51.1 µM | > 100 µM
COC(=O)CSSCc1ccc([N+](=O)[O-])cc1 |  | 37.7 µM |  | 30.3 µM |  | 50.9 µM |  | 38.9 µM |  | 45.7 µM |  | 36.7 µM |  | 41 µM |  | 47.1 µM |  | 30.8 µM |  | 34.3 µM
